From PMC8624133, “10th Trends in Medical Mycology Held on 8 to 11 October 2021, Aberdeen, Scotland, Organized by the European Confederation of Medical Mycology (ECMM)” (Journal of Fungi, 2021)
Values after ≈ are worked out from the molar mass of the structure shown. Non-standard residues stand in square brackets, D forms with d. Residues, ends and D or L forms follow the SMILES beside them. No end group written: not given here. pS = N[C@@H](COP(=O)(O)O)C(=O)O

How the values were obtained:
[1] = system: P. insidiosum (strains CBS101555, P38, ATCC90586); assay: Radial growth assay; format: cell-based, Pythium insidiosum; details: for MIC: Pythium insidiosum; for reduction of growth compared to the control: colony radial growth
Description: These agriculture fungicides were initially evaluated for inhibitory effect against 3 phylogenetical distinct strains of P. insidiosum (i.e., strains CBS101555, P38, and ATCC90586) isolated from humans and animal with pythiosis in Thailand, Brazil, and United States. A radial growth assay was employed for the in vitro susceptibility analysis. […] The percentage of the colony’s radial growth of the treated organism was calculated in relation to the untreated control. The microscopic changes of the microorganisms were recorded.

C. auris [2] = assay: CLSI M27-A3 broth microdilution; format: cell-based, Candida auris; details: for GM MIC (≥90% reduction of visible growth): 256–16 μg/mL tested, duplicate at two times
[3] = system: nine strains of Candida spp.; assay: CLSI M27-A3 broth microdilution; format: cell-based
C. glabrata ATCC 2001 = assay: Broth microdilution of modified HDPs; format: cell-based, Candida glabrata; details: 0.19 to 50 μg/mL tested
Excerpt: (§1) Materials & Methods: From the Scarabaeidae family transcriptome, 14 promising HDPs were identified. Subsequently, we designed new sequences modifying the net charge, hydrophobic angle and the general composition of amino acids, among other properties, in order to improve the HDPs antifungal activity. The in vitro antifungal susceptibility of the 14 modified HDPs against Candida krusei, ATCC 6558, Candida parapsilosis ATCC 22019, Candida glabrata ATCC 2001, Candida tropicalis ATCC 750, Cryptococcus neoformans H99 and Cryptococcus gattii H0058-I-2029 isolates were evaluated by broth microdilution, with a concentration ranging from 0.19 to 50 μg/mL for all peptides.

[4] = system: C. parapsilosis ATCC 22019; assay: Broth microdilution of modified HDPs; format: cell-based, Candida parapsilosis; details: 0.19 to 50 μg/mL tested
Excerpt: as §1

C. tropicalis ATCC 750 = assay: Broth microdilution of modified HDPs; format: cell-based, Candida tropicalis; details: 0.19 to 50 μg/mL tested
Excerpt: as §1

C. krusei ATCC 6558 = assay: Broth microdilution of modified HDPs; format: cell-based, Candida krusei; details: 0.19 to 50 μg/mL tested
Excerpt: as §1

C. neoformans H99 = assay: Broth microdilution of modified HDPs; format: cell-based, Cryptococcus neoformans; details: 0.19 to 50 μg/mL tested
Excerpt: as §1

C. gattii H0058-I-2029 = assay: Broth microdilution of modified HDPs; format: cell-based, Cryptococcus gattii; details: 0.19 to 50 μg/mL tested
Excerpt: as §1

C. albicans SC5314 = assay: Broth microdilution of modified HDPs; format: cell-based, Candida albicans; details: 0.19 to 50 μg/mL tested
C. albicans ATCC 1453 = assay: Broth microdilution of modified HDPs; format: cell-based, Candida albicans; details: 0.19 to 50 μg/mL tested
C. auris [5] = assay: EUCAST EDef 7.3.1 MIC and checkerboard microdilution; format: cell-based, Candida auris
Description: Methods: We studied 22 C. auris isolates obtained from different clinical samples from the Hospital La Fe, Valencia, Spain (eight from blood culture, seven from oropharynx and seven from urine cultures). Candida parapsilosis ATCC 22019 and Candida krusei ATCC 6258 were used as quality controls. The minimum inhibitory concentration (MIC) was determined according to the European Committee on Antibiotic Susceptibility Testing (EUCAST) EDef 7.3.1 document. The interaction between citral and the rest of antifungal drugs was assessed by a checkerboard microdilution method. […] The in vitro interaction of the drug combinations was interpreted in terms of the fractional inhibitory concentration index (FICI) as follows: FICI < 1, synergistic; FICI equal to 1, additive; and FICI > 1, indifferent or antagonistic.

| Compound | MIC (C. glabrata ATCC 2001) [µg/mL] | MIC [4] [µg/mL] | MIC (C. tropicalis ATCC 750) [µg/mL] | MIC (C. krusei ATCC 6558) [µg/mL] | MIC (C. neoformans H99) [µg/mL] | MIC (C. gattii H0058-I-2029) [µg/mL] | MIC (C. albicans SC5314) [µg/mL] | MIC (C. albicans ATCC 1453) [µg/mL] | further results |
| --- | --- | --- | --- | --- | --- | --- | --- | --- | --- |
| Cc1ccc(-c2c(Cl)nc(C#N)n2S(=O)(=O)N(C)C)cc1 [cyazofamid] |  |  |  |  |  |  |  |  | MIC [1]: 16 µg/mL (≈ 49.3 µM); reduction of growth compared to the control [1]: at least 70% |
| Cc1ccc(C(C)C)cc1O [carvacrol] |  |  |  |  |  |  |  |  | GM MIC (≥90% reduction of visible growth) (C. auris [2]): 215.3 µg/mL |
| C=C(C)[C@H]1CC=C(C)CC1 [D-limonene] |  |  |  |  |  |  |  |  | MICs range (C. auris [2]): 16 to 128 µg/mL; GM MIC (≥90% reduction of visible growth) (C. auris [2]): 20.39 µg/mL; selectivity index (SI) ([3]; C. glabrata LMDM 34 vs HaCat): 6; selectivity index (SI) ([3]; C. methapsilosis MUM 1512 vs HaCat): 50; selectivity index (SI) ([3]; C. orthopsilosis MUM 1713 vs HaCat): 25; selectivity index (SI) ([3]; C. tropicalis ATCC 200956 vs HaCat): 12 |
| GSKRWRKFEKRVKKIFEKTKEAK-NH2 [Act6] | 3.12 | 1.56 | >50 | 0.78 | 50 | 3.12 | >50 | >50 |  |
| Cc1ccc(C(C)C)cc1 [p-cymene] |  |  |  |  |  |  |  |  | GM MIC (≥90% reduction of visible growth) (C. auris [2]): 215.3 µg/mL |
| CSC1=N[C@@](C)(c2ccccc2)C(=O)N1Nc1ccccc1 [fenamidone] |  |  |  |  |  |  |  |  | MIC [1]: 64 µg/mL (≈ 206 µM); reduction of growth compared to the control [1]: at least 70% |
| GSKRWRKFEKRVKKIFEHTKEA-NH2 [Act7] | 3.12 | 1.56 | >50 | 0.78 | 50 | 3.12 | >50 | >50 |  |
| COc1ccc(C(=CC(=O)N2CCOCC2)c2ccc(Cl)cc2)cc1OC [dimethomorph] |  |  |  |  |  |  |  |  | inhibition [1]: no significant inhibition |
| KSKRWRKFEKRVKKIFEKTKEAK-NH2 [Act2] | 1.56 | 1.56 | 50 | 0.78 | 25 | 3.12 | >50 | >50 |  |
| RSKKWRKIEKRVKKIFEKTKEA-NH2 [sat122] | 3.12 | 0.39 | 50 | 1.56 | 50 | 3.12 | >50 | >50 |  |
| KSKRWRKFEKRVKKIFEHTKEA-NH2 [Act3] | 1.56 | 3.12 | >50 | 0.78 | 50 | 3.12 | >50 | >50 |  |
| GSKRWRKFEKRVKKIFEETKEALPVVQGVAGVAGAVGRR-NH2 [ConCec] | 1.56 | 0.39 | 25 | 0.78 | 25 | 1.56 | >50 | >50 |  |
| GSKRWRKFEKRVKKVFEHTKEA-NH2 [ox322] | 3.12 | 1.56 | >50 | 1.56 | 50 | 3.12 | >50 | >50 |  |
| Cc1cc(C(F)(F)F)nn1CC(=O)N1CCC(c2nc(C3=NOC(c4c(F)cccc4F)C3)cs2)CC1 (stereo not drawn) [oxathiapiprolin] |  |  |  |  |  |  |  |  | inhibition [1]: no significant inhibition |
| CC[C@H](C)[C@H](NC(=O)[C@H](CCCCN)NC(=O)[C@H](CCCCN)NC(=O)[C@@H](NC(=O)[C@H](CCCNC(=N)N)NC(=O)[C@H](CCCCN)NC(=O)[C@H](CCC(=O)O)NC(=O)[C@H](Cc1ccccc1)NC(=O)[C@H](CCCCN)NC(=O)[C@H](CCCNC(=N)N)NC(=O)[C@H](Cc1c[nH]c2ccccc12)NC(=O)[C@H](CCCNC(=N)N)NC(=O)[C@H](CCCCN)NC(=O)[C@H](COP(=O)(O)O)NC(=O)[C@@H](N)CCCCN)C(C)C)C(=O)N[C@@H](Cc1ccccc1)C(=O)N[C@@H](CCC(=O)O)C(=O)N[C@@H](CCCCN)C(=O)N[C@H](C(=O)N[C@@H](CCCCN)C(=O)N[C@@H](CCC(=O)O)C(=O)N[C@@H](C)C(=O)N[C@@H](CCCCN)C(N)=O)[C@@H](C)O [Act2.1] (H-K[pS]KRWRKFEKRVKKIFEKTKEAK-NH2) | 1.56 (≈ 0.51 µM) | 1.56 (≈ 0.51 µM) | >50 | 0.78 (≈ 0.255 µM) | >50 | 1.56 (≈ 0.51 µM) | >50 | >50 |  |
| GSKRWRKFEKRVKKIFEKTKEA-NH2 [Act5] | 3.12 | 3.12 | >50 | 1.56 | 25 | 1.56 | 25 to 50 | >50 |  |
| Cc1ccc(C(C)C)c(O)c1 [thymol] |  |  |  |  |  |  |  |  | GM MIC (≥90% reduction of visible growth) (C. auris [2]): 104 µg/mL |
| GSKRWRKFEKRVKK-NH2 [domcec] | 6.25 | 3.12 | >50 | 3.12 | >50 | >50 | >50 | >50 |  |
| KSKRWRKFEKRVKKIFEKFKEAK-NH2 [Act2.2] | 1.56 | 1.56 | 12.5 | 0.78 | 12.5 | 1.56 | >50 | >50 |  |
| KSKRWRKFEKRVKKIFEKTKEA-NH2 [Act1] | 3.12 | 3.12 | 50 | 1.56 | 50 | 6.25 | >50 | >50 |  |
| O=C(NCc1ncc(C(F)(F)F)cc1Cl)c1c(Cl)cccc1Cl [Fluopicolide, fluopicolide] |  |  |  |  |  |  |  |  | reduction of growth compared to the control [1]: at least 70%; MICs ([1]; tested at 0.25–[…], 3 biological replicates): 8 µg/mL |
| KSKRWRKFEKRVKKIFEHTKEAK-NH2 [Act4] | 3.12 | 1.56 | 50 | 0.78 | 50 | 1.56 | >50 | >50 |  |
| GSKRWRKFEKRVKKIFEHTKEAK-NH2 [Act8] | 3.12 | 1.56 | >50 | 0.78 | 50 | 3.12 | >50 | >50 |  |
| CC(C)=CCCC(C)=CC=O (mixture of isomers) [citral] |  |  |  |  |  |  |  |  | MIC of citral in combination with anidulafungin (C. auris [5]; 21 of the 22 isolates): 3 to 128 µg/mL; MIC (C. auris [5]; Candidozyma auris, 22 clinical isolates): > 1020 µg/mL; isolates with additive effect (FICI equal to 1) (C. auris [5]; citral + fluconazole): eight; isolates with synergistic effect (FICI < 1) (C. auris [5]; citral + fluconazole): three; isolates with additive effect (FICI equal to 1) (C. auris [5]; citral + isavuconazole): seven; isolates with synergistic effect (FICI < 1) (C. auris [5]; citral + isavuconazole): seven |
